# Data taken from patent publication US8778621B2, “Phosphodiesterase 4D7 as marker for malignant, hormone-sensitive prostate cancer” (Koninklijke Philips N.V., priority 2009, dated 2014).
# Like-named read-outs stand apart in the source and are kept apart here.
# Legend:
# PDEIXA = PDEIXA (Homo sapiens, UniProt O76083); conditions: cited from earlier work
# PDEVIIB = PDEVIIB (Homo sapiens, UniProt Q9NP56); conditions: cited from earlier work
# PDEIIA = PDEIIA (Homo sapiens, UniProt O00408); conditions: cited from earlier work
# [1] = target: cAMP phosphodiesterase (PDE4); conditions: cited from earlier work
# PDEVA = PDEVA (Homo sapiens, UniProt O76074); conditions: cited from earlier work
# PDEXIA = PDEXIA (Homo sapiens, UniProt Q9HCR9); conditions: cited from earlier work
# PDEXA = PDEXA (Homo sapiens, UniProt Q9Y233); conditions: cited from earlier work
# PDEVIIIA = PDEVIIIA (Homo sapiens, UniProt O60658); conditions: cited from earlier work
# PDEIB = PDEIB (Homo sapiens, UniProt Q01064); conditions: cited from earlier work
# PDEIIIB = PDEIIIB (Homo sapiens, UniProt Q13370); conditions: cited from earlier work
# [2] = in vivo; cited from earlier work
# [3] = target: [3H]-rolipram binding to rat brain; conditions: read-out: IC50 for inhibition of [3H]-rolipram binding to rat brain; cited from earlier work
# [4] = test system: LNCaP prostate cancer cells; assay: Xcelligence assay, real time electrical impedance measurement of cell growth; format: cell-based; conditions: Homo sapiens
# Method: The growth data is expressed as a percentage of “untreated” slope value obtained during real time electrical impedance measurements. Measurements were conducted 12 hours after the initial plating down phase of the assay, i.e. 12 hours-60 hours—so as to examine proliferative potential and not morphological change. The cells were assayed without the presence of androgens.
# For the Xcelligence assay LNCaP cells were grown at 37° C., 5% CO2, from a seeding value of 5000 cells. The final plating volume was 200 μl. E-Plate 96 well plates were obtained from Roche (Cat No 05232368001). The growth data were obtained during real time electrical impedance measurements. Measurements were conducted 12 hours after the initial plating down phase of the assay, i.e. 12 hours-60 hours—so as to examine proliferative potential and not morphological change. The cells were assayed without the presence of androgens. The significance of differential growth rates were calculated using T-Test of Triplicate Values only. […] The level of average inhibition of cell proliferation is around 50%, which would lead to an IC50 of the compound of ˜10 μM. Compared to an in vitro IC50 for 50% inhibition of PDE4 in vitro of ˜2 μm, an in vivo IC50 of 10 μM let us conclude that the proliferation inhibition effect is largely due to its PDE4 activity.
# [5] = test system: LNCaP prostate cancer cells; assay: MTT growth assay, A590 Abs end-point; format: cell-based; conditions: Homo sapiens
# Method: The growth data is expressed as a percentage of as a percentage of the “untreated” A590 Abs reading after 48 hours. The cells were assayed without the presence of androgens.
# For the MTT growth assay LNCaP cells were grown at 37° C., 5% CO2, from a seeding value of 5000 cells. The final plating volume was 200 μl. The proliferation assay was obtained from Promega (Cat no G3582). The growth data were obtained during A590 Abs measurements. Measurements were conducted 48 hours after the initial plating. The cells were assayed without the presence of androgens. The significance of final A590 readings was calculated using T-Test of Triplicate Values only. […] The level of average inhibition of cell proliferation is around 50%, which would lead to an IC50 of the compound of ˜10 μM. […]
# platelet PDE-V = target: T1, platelet PDE-V (Homo sapiens, UniProt O76074); conditions: cited from earlier work
# T1 construct: from tissue; host or cells: platelets
# lung PDE1 = conditions: cited from earlier work
# [6] = test system: isolated human peripheral blood monocytes, eosinophils and T cells; conditions: cited from earlier work
# heart PDE3 = conditions: cited from earlier work
# lung PDE2 = target: T2, lung PDE2; conditions: cited from earlier work
# T2 construct: from tissue; host or cells: lung
# human lung PDE4 = conditions: cited from earlier work
# [7] = in vivo; cited from earlier work; remark: listed apart in the source
# [8] = PDE4 inhibitors, target not given, read-out: IC 50 (Table of Inhibitors)
# Sequence of PDEXIA (Q9HCR9 whole entry): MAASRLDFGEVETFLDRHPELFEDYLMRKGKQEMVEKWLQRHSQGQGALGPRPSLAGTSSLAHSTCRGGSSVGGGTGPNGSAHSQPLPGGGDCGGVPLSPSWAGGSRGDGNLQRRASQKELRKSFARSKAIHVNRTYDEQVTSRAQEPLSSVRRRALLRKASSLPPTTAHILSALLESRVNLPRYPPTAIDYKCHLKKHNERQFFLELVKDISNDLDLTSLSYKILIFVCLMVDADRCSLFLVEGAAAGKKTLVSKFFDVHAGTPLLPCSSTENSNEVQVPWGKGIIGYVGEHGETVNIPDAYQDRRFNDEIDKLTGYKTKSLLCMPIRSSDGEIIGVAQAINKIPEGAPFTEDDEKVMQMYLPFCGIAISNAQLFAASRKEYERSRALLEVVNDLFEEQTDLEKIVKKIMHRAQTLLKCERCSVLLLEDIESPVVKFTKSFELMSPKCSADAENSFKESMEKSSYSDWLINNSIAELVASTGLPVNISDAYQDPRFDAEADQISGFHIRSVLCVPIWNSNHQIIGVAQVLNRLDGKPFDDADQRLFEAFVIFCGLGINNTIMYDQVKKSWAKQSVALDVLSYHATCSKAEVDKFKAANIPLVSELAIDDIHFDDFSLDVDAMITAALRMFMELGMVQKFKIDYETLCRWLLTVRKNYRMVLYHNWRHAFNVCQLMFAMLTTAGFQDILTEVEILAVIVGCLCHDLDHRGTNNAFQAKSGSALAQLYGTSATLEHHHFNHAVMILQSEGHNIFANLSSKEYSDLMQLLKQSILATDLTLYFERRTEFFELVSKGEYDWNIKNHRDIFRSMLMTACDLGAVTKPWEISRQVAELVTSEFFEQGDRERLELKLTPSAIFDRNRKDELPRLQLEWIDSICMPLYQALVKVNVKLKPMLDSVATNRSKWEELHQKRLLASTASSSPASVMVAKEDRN
# Sequence of PDEIIIB (Q13370 whole entry): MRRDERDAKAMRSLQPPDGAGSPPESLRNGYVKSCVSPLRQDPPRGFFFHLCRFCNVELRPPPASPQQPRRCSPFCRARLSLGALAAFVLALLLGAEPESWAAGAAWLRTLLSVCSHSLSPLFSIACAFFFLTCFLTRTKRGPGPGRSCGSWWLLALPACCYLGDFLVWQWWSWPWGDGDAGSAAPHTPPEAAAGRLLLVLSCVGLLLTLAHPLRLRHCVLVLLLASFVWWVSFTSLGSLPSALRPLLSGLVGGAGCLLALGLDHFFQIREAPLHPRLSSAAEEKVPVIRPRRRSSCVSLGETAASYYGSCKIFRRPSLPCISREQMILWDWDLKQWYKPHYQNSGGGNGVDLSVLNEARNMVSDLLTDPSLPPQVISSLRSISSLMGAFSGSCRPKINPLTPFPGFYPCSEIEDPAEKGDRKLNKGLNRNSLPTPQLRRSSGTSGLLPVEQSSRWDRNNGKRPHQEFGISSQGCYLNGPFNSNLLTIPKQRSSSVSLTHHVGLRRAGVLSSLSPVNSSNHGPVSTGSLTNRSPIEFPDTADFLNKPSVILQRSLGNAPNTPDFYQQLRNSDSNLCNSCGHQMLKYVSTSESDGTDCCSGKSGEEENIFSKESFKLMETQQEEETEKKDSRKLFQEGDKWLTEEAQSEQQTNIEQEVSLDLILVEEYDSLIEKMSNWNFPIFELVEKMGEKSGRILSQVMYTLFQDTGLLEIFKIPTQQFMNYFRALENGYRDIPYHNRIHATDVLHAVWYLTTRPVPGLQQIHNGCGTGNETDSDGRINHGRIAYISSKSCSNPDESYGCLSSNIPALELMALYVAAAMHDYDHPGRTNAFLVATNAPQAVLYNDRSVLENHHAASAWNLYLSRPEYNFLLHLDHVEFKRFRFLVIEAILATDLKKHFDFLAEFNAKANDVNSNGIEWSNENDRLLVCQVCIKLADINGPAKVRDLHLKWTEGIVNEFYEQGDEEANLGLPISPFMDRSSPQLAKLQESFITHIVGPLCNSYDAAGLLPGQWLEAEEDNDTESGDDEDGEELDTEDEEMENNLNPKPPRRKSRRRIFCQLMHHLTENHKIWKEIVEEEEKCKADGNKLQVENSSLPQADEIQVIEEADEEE
# Sequence of PDEIB (Q01064 whole entry): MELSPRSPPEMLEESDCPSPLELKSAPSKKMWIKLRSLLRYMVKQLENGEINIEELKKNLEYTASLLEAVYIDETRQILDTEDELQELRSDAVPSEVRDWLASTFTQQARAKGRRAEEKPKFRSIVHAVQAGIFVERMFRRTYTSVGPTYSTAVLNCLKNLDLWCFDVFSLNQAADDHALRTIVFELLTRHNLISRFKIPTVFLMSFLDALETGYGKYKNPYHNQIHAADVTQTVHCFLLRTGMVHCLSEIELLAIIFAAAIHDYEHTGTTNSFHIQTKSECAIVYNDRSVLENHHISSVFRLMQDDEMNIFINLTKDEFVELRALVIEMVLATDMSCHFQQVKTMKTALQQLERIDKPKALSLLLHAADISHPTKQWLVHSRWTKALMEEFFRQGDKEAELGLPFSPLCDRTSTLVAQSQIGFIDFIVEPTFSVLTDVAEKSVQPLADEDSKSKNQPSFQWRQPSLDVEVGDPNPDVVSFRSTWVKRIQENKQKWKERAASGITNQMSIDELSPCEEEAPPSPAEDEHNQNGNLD
# Sequence of PDEVIIB (Q9NP56 whole entry): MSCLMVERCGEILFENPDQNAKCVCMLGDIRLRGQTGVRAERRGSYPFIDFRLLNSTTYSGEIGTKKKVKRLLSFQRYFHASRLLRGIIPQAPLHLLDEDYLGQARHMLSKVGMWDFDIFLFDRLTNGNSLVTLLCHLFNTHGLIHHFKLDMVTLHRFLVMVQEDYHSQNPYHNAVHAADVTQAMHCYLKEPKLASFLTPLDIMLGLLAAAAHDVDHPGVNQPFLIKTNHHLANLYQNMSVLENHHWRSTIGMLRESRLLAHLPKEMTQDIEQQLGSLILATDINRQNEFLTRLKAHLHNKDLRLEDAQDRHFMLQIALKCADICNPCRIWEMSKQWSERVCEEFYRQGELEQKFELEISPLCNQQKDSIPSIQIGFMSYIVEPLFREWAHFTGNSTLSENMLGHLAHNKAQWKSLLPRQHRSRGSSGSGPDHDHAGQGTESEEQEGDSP
# Sequence of PDEVIIIA (O60658 whole entry): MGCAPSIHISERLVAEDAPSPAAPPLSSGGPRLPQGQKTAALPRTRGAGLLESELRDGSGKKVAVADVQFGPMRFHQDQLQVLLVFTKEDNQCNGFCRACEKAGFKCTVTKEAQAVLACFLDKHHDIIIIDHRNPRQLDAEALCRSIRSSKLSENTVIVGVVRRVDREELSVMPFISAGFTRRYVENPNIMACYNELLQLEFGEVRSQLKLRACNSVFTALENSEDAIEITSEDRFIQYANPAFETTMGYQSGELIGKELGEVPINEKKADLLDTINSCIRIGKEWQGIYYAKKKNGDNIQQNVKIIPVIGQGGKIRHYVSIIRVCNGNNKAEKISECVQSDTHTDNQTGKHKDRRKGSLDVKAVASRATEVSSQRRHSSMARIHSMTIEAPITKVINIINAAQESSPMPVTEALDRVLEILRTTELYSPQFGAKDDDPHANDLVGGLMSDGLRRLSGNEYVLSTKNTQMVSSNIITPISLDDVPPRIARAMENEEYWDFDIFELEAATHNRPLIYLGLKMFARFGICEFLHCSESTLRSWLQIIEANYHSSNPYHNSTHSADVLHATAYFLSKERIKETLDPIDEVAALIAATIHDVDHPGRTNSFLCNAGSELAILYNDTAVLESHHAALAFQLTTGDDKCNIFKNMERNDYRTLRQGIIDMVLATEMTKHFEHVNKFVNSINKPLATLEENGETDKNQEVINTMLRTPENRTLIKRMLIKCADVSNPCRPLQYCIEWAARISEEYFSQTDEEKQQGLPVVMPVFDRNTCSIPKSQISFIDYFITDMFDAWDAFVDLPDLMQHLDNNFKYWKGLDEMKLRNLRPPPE
# Sequence of PDEIXA (O76083 whole entry): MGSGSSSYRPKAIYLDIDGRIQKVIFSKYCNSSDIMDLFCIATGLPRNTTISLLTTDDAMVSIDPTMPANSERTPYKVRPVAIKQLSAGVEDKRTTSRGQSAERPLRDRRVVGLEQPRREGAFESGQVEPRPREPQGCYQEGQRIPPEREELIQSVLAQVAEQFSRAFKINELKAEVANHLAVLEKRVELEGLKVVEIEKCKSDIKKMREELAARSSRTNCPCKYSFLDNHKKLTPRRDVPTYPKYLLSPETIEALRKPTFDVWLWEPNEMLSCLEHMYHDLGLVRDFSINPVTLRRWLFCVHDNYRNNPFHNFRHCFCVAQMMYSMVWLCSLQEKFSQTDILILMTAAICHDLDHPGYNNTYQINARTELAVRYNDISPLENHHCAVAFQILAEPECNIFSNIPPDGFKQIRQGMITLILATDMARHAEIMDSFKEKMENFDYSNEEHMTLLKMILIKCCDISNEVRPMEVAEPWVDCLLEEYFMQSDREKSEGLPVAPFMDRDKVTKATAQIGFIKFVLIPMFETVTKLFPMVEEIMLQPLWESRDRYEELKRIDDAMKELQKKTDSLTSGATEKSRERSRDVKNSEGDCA
smiles,measurement,setting,value
CCOC(=O)c1c(C)nn(-c2cccc([N+](=O)[O-])c2)c1C [Phosphodiesterase 4 Inhibitor],IC50,PDEIXA,> 30 µM
same,IC50,PDEVIIB,> 30 µM
same,IC50,PDEIIA,> 30 µM
same,IC50,[1]; [8],0.033 µM
same,IC50,PDEVA,> 30 µM
same,IC50,PDEXIA,> 30 µM
same,IC50,PDEXA,6.9 µM
same,IC50,PDEVIIIA,> 30 µM
same,IC50,PDEIB,> 30 µM
same,IC50,PDEIIIB,> 30 µM
CCc1ccc2c(-c3cccc(Cl)c3)nc(=O)n(CC)c2n1 [YM976],IC50,"[1]; read-out: IC50, PDE4",0.0022 µM
same,emetogenic activity,[2],low emetogenic activity
CCCn1c(=O)c(C)cn2nc(N)nc12 [ICI63197],IC50,[3],0.035 µM
same,IC50,[1]; [8],0.035 µM
COc1ccc(C2CNC(=O)C2)cc1OC1CCCC1 (stereo not drawn) [Rolipram],inhibition at 10 µM,"[4]; 10 uM, 12-60 hours, without androgens, p<0.01, read-out: level of average inhibition of cell proliferation",~50%
same,IC50,"[4]; real-time growth, concluded from 50% inhibition at 10 uM, read-out: IC50 of cell proliferation inhibition",~10 µM
same,IC50,[1]; [8],1 µM
same,IC50,"[1]; in vitro, read-out: in vitro IC50 for 50% inhibition of PDE4",~2 µM
same,IC50,"[1]; read-out: IC50, PDE4",2 µM
same,inhibition at 10 µM,"[5]; 10 μM, 48 hours, without androgens, p<0.01, read-out: level of average inhibition of cell proliferation",~50%
same,IC50,"[5]; end-point growth, concluded from 50% inhibition at 10 μM, read-out: IC50 of cell proliferation inhibition",~10 µM
COc1ccc(C2CNC(=O)NC2)cc1O[C@H]1C[C@@H]2CC[C@H]1C2 [CP80633],IC50,platelet PDE-V,> 100 µM
same,IC50,[1]; [8],1.9 µM
same,IC50,lung PDE1,> 100 µM
same,hydrolysis of cAMP in blood cells,[6],inhibits hydrolysis of cAMP
same,IC50,heart PDE3,> 100 µM
same,IC50,lung PDE2,> 100 µM
same,IC50,human lung PDE4,1.9 µM
same,PDE4 isozyme selectivity,human lung PDE4,no significant PDE4 isozyme selectivity
same,anti-inflammatory and bronchodilatory effects,[7],anti-inflammatory and bronchodilatory effects in vivo
